Measured values published in patent US6906205B2, “Spiro and dispiro 1,2,4-trioxolane antimalarials” (Medicines for Malaria Venture MMV, priority 2002, dated 2005).
Values after ≈ are worked out from the molar mass of the structure shown.

Each molecule was assayed on P. falciparum K1 strain (Thailand resistant to chloroquine) (assay: semiautomated microdilution assay, [3H]-hypoxanthine incorporation, K1 strain). Details: K1 strain, 72 h incubation.
Type: cell-based, Plasmodium falciparum
How it was run: (§1)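 Intraerythrocytic stages from unsynchronised stock cultures are exposed to test compounds in a semiautomated microdilution format, and fifty percent inhibitory concentrations are then fitted by logit regression.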

| SMILES | IC50 (ng/ml) K1 |
| --- | --- |
| C1C2CC3CC1CC(C2)C31OO[C@]2(CC[C@@H](CN(C[C@H]3CC[C@]4(CC3)OOC3(O4)C4CC5CC(C4)CC3C5)C3CC3)CC2)O1 (stereo partly drawn) [OZ254] | > 100 ng/mL |
| COCC(=O)N[C@H]1CC[C@]2(CC1)OOC1(O2)C2CC3CC(C2)CC1C3 (stereo partly drawn) [OZ186] | >10/>10 ng/ml |
| N#Cc1ccc(C2(c3ccccc3)OOC3(O2)C2CC4CC(C2)CC3C4)cc1 (stereo not drawn) [OZ124] | 2.1 ng/mL (≈ 0.00562 µM) |
| O=[N+]([O-])c1cc(C2(c3ccc(Cl)c([N+](=O)[O-])c3)OOC3(O2)C2CC4CC(C2)CC3C4)ccc1Cl (stereo not drawn) [OZ96] | 8.4 ng/mL (≈ 0.0166 µM) |
| CCOC(=O)CCC[C@H]1CC[C@]2(CC1)OOC1(O2)C2CC3CC(C2)CC1C3 (stereo partly drawn) [OZ260] | 5.6 ng/mL (≈ 0.0148 µM) |
| C=C1COC2(CCC3(CC2)OOC2(O3)C3CC4CC(C3)CC2C4)OC1 (stereo not drawn) [OZ128] | 0.59 ng/mL (≈ 0.00169 µM) |

Each molecule was assayed on ANKA strain of P. berghei (assay: single dose STI in vivo screen in infected mice). Details: percent reduction in parasitemia day 3 post-infection; single 10 mg/kg po in 3% ethanol and 7% Tween 80; mice.
Parameters: species or system Plasmodium berghei
How it was run: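 Groups of 3-5 Moro SPF or NMRI mice infected with the ANKA strain of P. berghei received a single dose of trioxolane on day one post-infection. The compound was given in 3% ethanol and 7% Tween 80 or in SSV (0.5% w/v CMC, 0.5% v/v benzyl alcohol, 0.4% v/v Tween 80, 0.9% w/v sodium chloride in water). Antimalarial activity was scored as percent reduction in parasitemia on day three and as survival time versus untreated controls. Survival to day 30 counted as cure.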

| SMILES | Activity (%) po |
| --- | --- |
| C1C2CC3CC1CC(C2)C31OO[C@]2(CC[C@@H](CN(C[C@H]3CC[C@]4(CC3)OOC3(O4)C4CC5CC(C4)CC3C5)C3CC3)CC2)O1 (stereo partly drawn) [OZ254] | 27% |
| COCC(=O)N[C@H]1CC[C@]2(CC1)OOC1(O2)C2CC3CC(C2)CC1C3 (stereo partly drawn) [OZ186] | 87% |
| N#Cc1ccc(C2(c3ccccc3)OOC3(O2)C2CC4CC(C2)CC3C4)cc1 (stereo not drawn) [OZ124] | 72% |
| O=[N+]([O-])c1cc(C2(c3ccc(Cl)c([N+](=O)[O-])c3)OOC3(O2)C2CC4CC(C2)CC3C4)ccc1Cl (stereo not drawn) [OZ96] | 12% |
| CCOC(=O)CCC[C@H]1CC[C@]2(CC1)OOC1(O2)C2CC3CC(C2)CC1C3 (stereo partly drawn) [OZ260] | 72% |
| C=C1COC2(CCC3(CC2)OOC2(O3)C3CC4CC(C3)CC2C4)OC1 (stereo not drawn) [OZ128] | 99.93% |

Same assay, conditions: percent reduction in parasitemia day 3 post-infection; single 10 mg/kg sc in 3% ethanol and 7% Tween 80; mice

| SMILES | Activity (%) sc |
| --- | --- |
| C1C2CC3CC1CC(C2)C31OO[C@]2(CC[C@@H](CN(C[C@H]3CC[C@]4(CC3)OOC3(O4)C4CC5CC(C4)CC3C5)C3CC3)CC2)O1 (stereo partly drawn) [OZ254] | 2% |
| COCC(=O)N[C@H]1CC[C@]2(CC1)OOC1(O2)C2CC3CC(C2)CC1C3 (stereo partly drawn) [OZ186] | 67% |
| N#Cc1ccc(C2(c3ccccc3)OOC3(O2)C2CC4CC(C2)CC3C4)cc1 (stereo not drawn) [OZ124] | 86% |
| O=[N+]([O-])c1cc(C2(c3ccc(Cl)c([N+](=O)[O-])c3)OOC3(O2)C2CC4CC(C2)CC3C4)ccc1Cl (stereo not drawn) [OZ96] | 19% |
| CCOC(=O)CCC[C@H]1CC[C@]2(CC1)OOC1(O2)C2CC3CC(C2)CC1C3 (stereo partly drawn) [OZ260] | 81% |
| C=C1COC2(CCC3(CC2)OOC2(O3)C3CC4CC(C3)CC2C4)OC1 (stereo not drawn) [OZ128] | 99.98% |

Same assay, conditions: percent reduction in parasitemia day 3 post-infection; single po dose in standard suspending vehicle (SSV); mice

| SMILES | Activity (%) SSVpo |
| --- | --- |
| C1C2CC3CC1CC(C2)C31OO[C@]2(CC[C@@H](CN(C[C@H]3CC[C@]4(CC3)OOC3(O4)C4CC5CC(C4)CC3C5)C3CC3)CC2)O1 (stereo partly drawn) [OZ254] | 11% |
| COCC(=O)N[C@H]1CC[C@]2(CC1)OOC1(O2)C2CC3CC(C2)CC1C3 (stereo partly drawn) [OZ186] | 96% |
| N#Cc1ccc(C2(c3ccccc3)OOC3(O2)C2CC4CC(C2)CC3C4)cc1 (stereo not drawn) [OZ124] | 17% |
| O=[N+]([O-])c1cc(C2(c3ccc(Cl)c([N+](=O)[O-])c3)OOC3(O2)C2CC4CC(C2)CC3C4)ccc1Cl (stereo not drawn) [OZ96] | 14% |
| CCOC(=O)CCC[C@H]1CC[C@]2(CC1)OOC1(O2)C2CC3CC(C2)CC1C3 (stereo partly drawn) [OZ260] | 51% |
| C=C1COC2(CCC3(CC2)OOC2(O3)C3CC4CC(C3)CC2C4)OC1 (stereo not drawn) [OZ128] | 99.95% |

Same assay, conditions: single 10 mg/kg po in 3% ethanol and 7% Tween 80; untreated control 5.6 ± 0.3

| SMILES | Survival (days) po |
| --- | --- |
| C1C2CC3CC1CC(C2)C31OO[C@]2(CC[C@@H](CN(C[C@H]3CC[C@]4(CC3)OOC3(O4)C4CC5CC(C4)CC3C5)C3CC3)CC2)O1 (stereo partly drawn) [OZ254] | 6.0 days |
| COCC(=O)N[C@H]1CC[C@]2(CC1)OOC1(O2)C2CC3CC(C2)CC1C3 (stereo partly drawn) [OZ186] | 8.0 days |
| N#Cc1ccc(C2(c3ccccc3)OOC3(O2)C2CC4CC(C2)CC3C4)cc1 (stereo not drawn) [OZ124] | 6.3 days |
| O=[N+]([O-])c1cc(C2(c3ccc(Cl)c([N+](=O)[O-])c3)OOC3(O2)C2CC4CC(C2)CC3C4)ccc1Cl (stereo not drawn) [OZ96] | 5.7 days |
| CCOC(=O)CCC[C@H]1CC[C@]2(CC1)OOC1(O2)C2CC3CC(C2)CC1C3 (stereo partly drawn) [OZ260] | 6.7 days |
| C=C1COC2(CCC3(CC2)OOC2(O3)C3CC4CC(C3)CC2C4)OC1 (stereo not drawn) [OZ128] | 8.3 days |

Same assay, conditions: single 10 mg/kg sc in 3% ethanol and 7% Tween 80; untreated control 5.6 ± 0.3

| SMILES | Survival (days) sc |
| --- | --- |
| C1C2CC3CC1CC(C2)C31OO[C@]2(CC[C@@H](CN(C[C@H]3CC[C@]4(CC3)OOC3(O4)C4CC5CC(C4)CC3C5)C3CC3)CC2)O1 (stereo partly drawn) [OZ254] | 5.7 days |
| COCC(=O)N[C@H]1CC[C@]2(CC1)OOC1(O2)C2CC3CC(C2)CC1C3 (stereo partly drawn) [OZ186] | 8.0 days |
| N#Cc1ccc(C2(c3ccccc3)OOC3(O2)C2CC4CC(C2)CC3C4)cc1 (stereo not drawn) [OZ124] | 7.0 days |
| O=[N+]([O-])c1cc(C2(c3ccc(Cl)c([N+](=O)[O-])c3)OOC3(O2)C2CC4CC(C2)CC3C4)ccc1Cl (stereo not drawn) [OZ96] | 5.3 days |
| CCOC(=O)CCC[C@H]1CC[C@]2(CC1)OOC1(O2)C2CC3CC(C2)CC1C3 (stereo partly drawn) [OZ260] | 7.7 days |
| C=C1COC2(CCC3(CC2)OOC2(O3)C3CC4CC(C3)CC2C4)OC1 (stereo not drawn) [OZ128] | 11.7 days |

Same assay, conditions: single po dose in SSV; untreated control 5.6 ± 0.3

| SMILES | Survival (days) SSVpo |
| --- | --- |
| C1C2CC3CC1CC(C2)C31OO[C@]2(CC[C@@H](CN(C[C@H]3CC[C@]4(CC3)OOC3(O4)C4CC5CC(C4)CC3C5)C3CC3)CC2)O1 (stereo partly drawn) [OZ254] | 5.7 days |
| COCC(=O)N[C@H]1CC[C@]2(CC1)OOC1(O2)C2CC3CC(C2)CC1C3 (stereo partly drawn) [OZ186] | 9.0 days |
| N#Cc1ccc(C2(c3ccccc3)OOC3(O2)C2CC4CC(C2)CC3C4)cc1 (stereo not drawn) [OZ124] | 5.3 days |
| O=[N+]([O-])c1cc(C2(c3ccc(Cl)c([N+](=O)[O-])c3)OOC3(O2)C2CC4CC(C2)CC3C4)ccc1Cl (stereo not drawn) [OZ96] | 5.7 days |
| CCOC(=O)CCC[C@H]1CC[C@]2(CC1)OOC1(O2)C2CC3CC(C2)CC1C3 (stereo partly drawn) [OZ260] | 7.0 days |
| C=C1COC2(CCC3(CC2)OOC2(O3)C3CC4CC(C3)CC2C4)OC1 (stereo not drawn) [OZ128] | 8.7 days |

What follows are molecules tested on P. falciparum NF54 strain (sensitive to standard antimalarials) (assay: semiautomated microdilution assay, [3H]-hypoxanthine incorporation, NF54 strain). Details: NF54 strain, 72 h incubation.
Type: cell-based, Plasmodium falciparum
How it was run: as §1

| SMILES | IC50 (ng/ml) NF54 |
| --- | --- |
| C1C2CC3CC1CC(C2)C31OO[C@]2(CC[C@@H](CN(C[C@H]3CC[C@]4(CC3)OOC3(O4)C4CC5CC(C4)CC3C5)C3CC3)CC2)O1 (stereo partly drawn) [OZ254] | 57 ng/mL (≈ 0.0935 µM) |
| COCC(=O)N[C@H]1CC[C@]2(CC1)OOC1(O2)C2CC3CC(C2)CC1C3 (stereo partly drawn) [OZ186] | >10/>10 ng/ml |
| N#Cc1ccc(C2(c3ccccc3)OOC3(O2)C2CC4CC(C2)CC3C4)cc1 (stereo not drawn) [OZ124] | 1.7 ng/mL (≈ 0.00455 µM) |
| O=[N+]([O-])c1cc(C2(c3ccc(Cl)c([N+](=O)[O-])c3)OOC3(O2)C2CC4CC(C2)CC3C4)ccc1Cl (stereo not drawn) [OZ96] | > 10 ng/mL |
| CCOC(=O)CCC[C@H]1CC[C@]2(CC1)OOC1(O2)C2CC3CC(C2)CC1C3 (stereo partly drawn) [OZ260] | 4.3 ng/mL (≈ 0.0114 µM) |
| C=C1COC2(CCC3(CC2)OOC2(O3)C3CC4CC(C3)CC2C4)OC1 (stereo not drawn) [OZ128] | 1.1 ng/mL (≈ 0.00316 µM) |
